Assay results as given in patent publication US20100093655A1 (priority 2007, published 2010).
Read-outs that look alike come from different tables or passages of the source. Marks after values point to notes of the source that are not given here.

Experiments:
[1] = system: lymphocytes of patients suffering from AIDS; assay type: cell-based, human; settings: after 6 days (day 12-18)
[2] = system: lymphocytes of patients suffering from AIDS; assay type: cell-based, human; settings: for Cell survival rate (×100%): day 18 vs day 12
HIV-1 = settings: for Viral RNA Number of copies/ml: after 6 days (day 12-18); for viral RNA expressed, more than the control: patient two, no therapy
HIV-1 proviral DNA = assay: Proviral DNA, modified Muprovama test; settings: for Proviral DNA Number of copies/10^6 cells: after 6 days (day 12-18); for Log of proviral HIV DNA: riluzole 0.1 μM (+), mean ± S.D.
IL-15 = assay: Measurement of interleukin-15 production (ELISA of supernatant); assay type: cell-based; settings: riluzole 10^-8 M, culture supernatant, without riluzole 1
[3] = system: lymphocytes of a patient suffering from AIDS; assay: Apoptosis test (annexin V / propidium iodide, flow cytometry); assay type: cell-based, human; settings: after 13 days; 10^-7-10^-8 M
Description: The apoptotic cells were measured using propidium iodide and FITC-labeled annexin V, which is a phospholipid-binding protein that binds preferentially to the phosphatidylserine exposed at the surface of the cells in the initial phase of apoptosis, by means of a commercially available kit (Immunotech, Marseille, France). The cells that were propidium-iodide-negative and annexin-V-positive were identified as being apoptotic cells, whereas those that were positive for both propidium iodide and annexin V were considered to be pre-necrotic cells. […] Counting of T cells having CD4+ and CD8+ phenotypes, of the Ki-67 activation marker and of annexin V was carried out by flow cytometry analysis (FACScan, Becton Dickenson, San José, Calif., USA). A series of monoclonal antibodies directed against the following surface markers of T cells was used: CD4-PerCP, CD8-PE (Becton Dickinson, France), Ki-67-FITC (Pharmingen, Los Angeles, Calif., USA), Annexin-FITC (Immunotech, Marseille, France).

Ki-67 antigen = assay: Expression of the Ki-67 antigen (flow cytometry); assay type: cell-based, human
FAS (CD95/APO-1) = assay: Apoptosis induced by the anti-FAS antibody (annexin V expression); assay type: cell-based, human; settings: lymphocytes of patient two
Description: The apoptotic cells were measured using propidium iodide and FITC-labeled annexin V, which is a phospholipid-binding protein that binds preferentially to the phosphatidylserine exposed at the surface of the cells in the initial phase of apoptosis, by means of a commercially available kit (Immunotech, Marseille, France). The cells that were propidium-iodide-negative and annexin-V-positive were identified as being apoptotic cells, whereas those that were positive for both propidium iodide and annexin V were considered to be pre-necrotic cells. The apoptosis caused by the anti-FAS monoclonal antibody (CD95/APO-1) (Immunotech, Marseille, France) was thus measured since it is well known that Fas/Fas ligand apoptosis is amplified in AIDS disease.
Counting of T cells having CD4+ and CD8+ phenotypes, of the Ki-67 activation marker and of annexin V was carried out by flow cytometry analysis (FACScan, Becton Dickenson, San José, Calif., USA). A series of monoclonal antibodies directed against the following surface markers of T cells was used: CD4-PerCP, CD8-PE (Becton Dickinson, France), Ki-67-FITC (Pharmingen, Los Angeles, Calif., USA), Annexin-FITC (Immunotech, Marseille, France).
As indicated above, it is well established that the lymphocytes of HIV-1-infected patients are sensitive to apoptosis induced by the expression of FAS (CD95/APO-1) and of its agonist, the anti-FAS antibody.

[4] = system: TG 180 line (Crocker sarcoma tumor); assay: Inhibition of tumor cell proliferation (3H thymidine incorporation); assay type: cell-based; settings: 120 h, 5 days (FIG. 9a)
Source text: (§1) After 5 days, the proliferation of the cells is estimated by tritiated (3H) thymidine incorporation. Other tumor lines were used, namely the H9 line (T lymphoma), the NB4 line (line derived from an acute promyelocytic leukemia) and the Jurkat line (T-lymphoma-derived lymphoblastic T cell line).

interferon-α gene = assay: Detection of cytokines by real-time PCR; assay type: cell-based; settings: real-time PCR (FIG. 8)
Description: (§2) Using real-time PCR, 2 μg of total RNA is first reverse-transcribed by means of a kit (High Capacity cDNA Archive kit PN: 4322171, Applied Biosystems, Foster City, Calif.) using random primers and the MultiScribe RT enzyme (5 U/μl) for 2 hours at 37° C. The method of labeling with a SYBR Green, a fluorescent molecule which intercalates into the minor groove of the double helix, was used. The reaction is carried out using a thermocycler (ABI prism 7900 HT, Applied Biosystems, Foster City, Calif.). Each point studied was composed of 5 μl of SYBR Green PCR Master Mix (PN:4344463; Applied Biosystems, Foster City, Calif.), 0.3 μl of sense and antisense primer at a concentration of 10 μM (Proligo), 3.4 μl of Rnase-free water and 1 μl of cDNA. After a denaturation step at 95° C. for 15 min, the amplification is carried out after 40 cycles at 95° C. for 15 s, 60° C. for 30 s and 72° C. for 30 s. At the end of the PCR, a dissociation step corresponding to the amplification peak, which takes place in a cycle of 95° C. for 15 s, 60° C. for 15 s and 95° C. for 15 s, verifies the validity of the primers. The primers for all the genes studied were chosen according to the Oligo Explorer 1.1 amplification conditions. The samples were studied in duplicate in the presence of a negative control, composed of Master Mix and the primers, but without the cDNA. Glyceraldehyde phosphate dehydrogenase (GAPDH) was used as endogenous control gene.
(§3) The effect of the treatments on the levels of mRNA of interest is studied using the method of comparison of CTs (Peinnequin et al., 2004) or number of cycles necessary to reach a threshold fluorescence value (software SDS 2.1, AB prism).
(§4) The sequences of the primers used are the following (Proligo LLC, Boulder, Colo., USA) (forward-reverse): […]

IL-15 gene = assay: Detection of cytokines by real-time PCR; assay type: cell-based; settings: real-time PCR (FIG. 8)
Description: as §2, §3, §4

interferon-β gene = assay: Detection of cytokines by real-time PCR; assay type: cell-based; settings: real-time PCR (FIG. 8)
Description: as §2, §3, §4

Toll receptor 3 gene = assay: Detection of cytokines by real-time PCR; assay type: cell-based; settings: real-time PCR (FIG. 8)
Description: as §2, §3, §4

H9 line = assay: Inhibition of tumor cell proliferation; assay type: cell-based; settings: H9 line (FIG. 9d)
Source text: as §1

Jurkat line = assay: Inhibition of tumor cell proliferation; assay type: cell-based; settings: Jurkat line (FIG. 9b)
Source text: as §1

NB4 line = assay: Inhibition of tumor cell proliferation; assay type: cell-based; settings: NB4 line (FIG. 9c)
Source text: as §1

Cc1cn([C@H]2C[C@H](N=[N+]=[N-])[C@@H](CO)O2)c(=O)[nH]c1=O [AZT]
Viability % dead cells ([1]; Individual AR, AZT 1 μg/ml): 28%
Viability % dead cells ([1]; Individual AR, AZT 10 μg/ml): 25%
Viability % dead cells ([1]; Individual PR, AZT 1 μg/ml): 19%
Viability % dead cells ([1]; Individual PR, AZT 10 μg/ml): 20%
Viability % dead cells ([1]; Individual beta, AZT 1 μg/ml): 29%
Viability % dead cells ([1]; Individual beta, AZT 10 μg/ml): 20%
effect on proliferation of the control cells ([2]; AZT 10 μg/ml): suppressor (antiproliferative) effect
Cell survival rate (×100%) ([2]; Individual AR, AZT 1 μg/ml): 5 ×100%
Cell survival rate (×100%) ([2]; Individual AR, AZT 10 μg/ml): 4 ×100%
Cell survival rate (×100%) ([2]; Individual PE, AZT 10 μg/ml): 3 ×100%
Cell survival rate (×100%) ([2]; Individual PR, AZT 1 μg/ml): 12 ×100%
Cell survival rate (×100%) ([2]; Individual PR, AZT 10 μg/ml): 13 ×100%
Cell survival rate (×100%) ([2]; Individual beta, AZT 1 μg/ml): 3 ×100%
antiviral effect on the control cells (HIV-1; AZT 1 μg/ml): partial, or even equivalent
antiviral effect (HIV-1; AZT 10 μg/ml): exerts an antiviral effect
Viral RNA Number of copies/ml (HIV-1; Individual AR, AZT 1 μg/ml): 35 000 copies/ml
Viral RNA Number of copies/ml (HIV-1; Individual AR, AZT 10 μg/ml): <100 copies/ml
Viral RNA Number of copies/ml (HIV-1; Individual PR, AZT 1 μg/ml): 7000 copies/ml
Viral RNA Number of copies/ml (HIV-1; Individual PR, AZT 10 μg/ml): <100 copies/ml
Proviral DNA Number of copies/10^6 cells (HIV-1 proviral DNA; Individual AR, AZT 1 μg/ml): 6.1 Log copies/10^6 cells
Proviral DNA Number of copies/10^6 cells (HIV-1 proviral DNA; Individual AR, AZT 10 μg/ml): 5.4 Log copies/10^6 cells
Proviral DNA Number of copies/10^6 cells (HIV-1 proviral DNA; Individual PR, AZT 1 μg/ml): 4.9 Log copies/10^6 cells
Proviral DNA Number of copies/10^6 cells (HIV-1 proviral DNA; Individual PR, AZT 10 μg/ml): 4.8 Log copies/10^6 cells

Nc1nc2ccc(OC(F)(F)F)cc2s1 [riluzole, 6-(trifluoromethoxy)-2-aminobenzothiazole]
production of IL-15 (IL-15): 6 pg/mL
production of IL-15 (IL-15; listed as Riluzole): 15* pg/ml
inhibition of apoptosis of CD4 lymphocytes [3]: 80%
inhibition of apoptosis of CD8 lymphocytes [3]: 70%
inhibition of total apoptosis expressed by all the lymphocytes [3]: 66%
inhibition of Ki-67 antigen expression by all of the lymphocytes (Ki-67 antigen; after 13 days in the presence of riluzole (FIG. 6A)): ~33%
inhibition of Ki-67 antigen expression by the CD8 lymphocytes (Ki-67 antigen; after 13 days in the presence of riluzole (FIG. 6B)): ~37%
inhibition of Ki-67 antigen expression by the CD4 lymphocytes (Ki-67 antigen; after 13 days in the presence of riluzole (FIG. 6C)): ~50%
inhibition at 0.01 µM (FAS (CD95/APO-1); Homo sapiens, Lymphocyte, 10^-8 M): 62%
apoptosis (annexin V expression) of cells coupled to anti-FAS antibody (FAS (CD95/APO-1); 10^-8 M, control 50%): 15%
percentage inhibition of apoptosis, cells cultured without anti-FAS antibody (FAS (CD95/APO-1); compared with the 62% inhibition with antibody): comparable
inhibition at 100 µM ([4]; 10^-4 M): 86%
inhibition at 10 µM ([4]; 10^-5 M (first mention)): 40%
inhibition at 10 µM ([4]; 10^-5 M (second mention)): 30%
expression of the interferon-α gene (interferon-α gene): capable of inducing the expression
expression of the IL-15 gene (IL-15 gene): capable of inducing the expression
expression of the interferon-β gene (interferon-β gene): capable of inducing the expression
expression of the Toll receptor 3 gene (Toll receptor 3 gene): capable of inducing the expression
virus measurement versus control (HIV-1; patient one, 10^-7 M, days 3 and 6 of culture): virtually the same
HIV-1 RNA of conditioned cultures versus controls (HIV-1; patient one, 10^-7 M, days 10 and 13 (FIG. 1C)): twice as high
viral RNA expressed, more than the control (HIV-1; day 13 (FIG. 3C)): up to 0.7 log10
viral RNA expressed, more than the control (HIV-1; from the 6th day, doses 10^-8 M, 10^-7 M and 10^-8 M as printed): 0.8 logn
HIV-1 RNA in culture supernatants, increase (HIV-1; untreated patient one, 10^-7 M, day 13 of culture): 100%
Log of proviral HIV DNA (HIV-1 proviral DNA; TT(+), V: 44.000, Day 3 of culture): 2 ± 0.3 Log copies [cp]/10^6 cells
Log of proviral HIV DNA (HIV-1 proviral DNA; TT(+), V: 44.000, Day 6 of culture): 0.3 ± 0.1 Log copies [cp]/10^6 cells
Log of proviral HIV DNA (HIV-1 proviral DNA; TT(+), V: 250, Day 3 of culture): 3 ± 0.2 Log copies [cp]/10^6 cells
Log of proviral HIV DNA (HIV-1 proviral DNA; TT(+), V: 250, Day 6 of culture): 0.2 ± 0.1 Log copies [cp]/10^6 cells
Log of proviral HIV DNA (HIV-1 proviral DNA; TT(−), V: 68.000, Day 3 of culture): 3.7 ± 0.2 Log copies [cp]/10^6 cells
Log of proviral HIV DNA (HIV-1 proviral DNA; TT(−), V: 68.000, Day 6 of culture): 0.7 ± 0.1 Log copies [cp]/10^6 cells
inhibition of the proliferation of tumor cells (H9 line): inhibition of the proliferation of these tumor cells is also observed
inhibition of the proliferation of tumor cells (Jurkat line): inhibition of the proliferation of these tumor cells is also observed
inhibition of the proliferation of tumor cells (NB4 line): inhibition of the proliferation of these tumor cells is also observed
